# In PubChem BioAssay (NCI):
#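 Dose response: 5 concentrations. Exposure: 48 h. Format: 96-well plates. Endpoint: linear interpolation; highest concentration if not reached. Abbreviation: GI50, concentration required for 50% inhibition of growth. Definition used: TGI = concentration required for complete inhibition of growth.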
# Columns and labels:
# Test in all cases: NCI tumour cell line growth inhibition, 48 h
# SW-620 colon = system: SW-620 colon
# HT29 colon = system: HT29 colon
# A498 renal = system: A498 renal
# NCI-H226 lung = system: NCI-H226 lung
# MDA-MB-231 breast = system: MDA-MB-231 breast
# MDA-MB-435 = system: MDA-MB-435
# CCRF-CEM leukemia = system: CCRF-CEM leukemia
# HOP-92 NSCLC = system: HOP-92 NSCLC
# SK-MEL-2 melanoma = system: SK-MEL-2 melanoma
# OVCAR-4 ovarian = system: OVCAR-4 ovarian
# LOX IMVI melanoma = system: LOX IMVI melanoma
# KM12 colon = system: KM12 colon
# A549 NSCLC = system: A549 NSCLC
# TK-10 renal = system: TK-10 renal
# SN12C renal = system: SN12C renal
# IGROV1 ovarian = system: IGROV1 ovarian
# OVCAR-8 ovarian = system: OVCAR-8 ovarian
# HCT-116 colon = system: HCT-116 colon
# NCI-H522 lung = system: NCI-H522 lung
# UO-31 renal = system: UO-31 renal
# SK-MEL-28 melanoma = system: SK-MEL-28 melanoma
# MALME-3M melanoma = system: MALME-3M melanoma
# OVCAR-3 ovarian = system: OVCAR-3 ovarian
# COLO 205 colon = system: COLO 205 colon
# PC-3 prostate = system: PC-3 prostate
# SR leukemia = system: SR leukemia
# HOP-62 NSCLC = system: HOP-62 NSCLC
# MOLT-4 leukemia = system: MOLT-4 leukemia
# CAKI-1 renal = system: CAKI-1 renal
# MDA-N = system: MDA-N
# RPMI-8226 leukemia = system: RPMI-8226 leukemia
# MCF7 breast = system: MCF7 breast
# EKVX NSCLC = system: EKVX NSCLC
# U251 CNS = system: U251 CNS
# SF-268 CNS = system: SF-268 CNS
# K-562 leukemia = system: K-562 leukemia
# DU-145 prostate = system: DU-145 prostate
# HS 578T breast = system: HS 578T breast
# OVCAR-5 ovarian = system: OVCAR-5 ovarian
# SF-295 CNS = system: SF-295 CNS
# NCI-H23 lung = system: NCI-H23 lung
# UACC-62 melanoma = system: UACC-62 melanoma
# 786-0 renal = system: 786-0 renal
# SK-MEL-5 melanoma = system: SK-MEL-5 melanoma
# RXF 393 renal = system: RXF 393 renal
# HCT-15 colon = system: HCT-15 colon
# HL-60(TB) leukemia = system: HL-60(TB) leukemia
# SNB-19 CNS = system: SNB-19 CNS
# SF-539 CNS = system: SF-539 CNS
# NCI/ADR-RES ovarian = system: NCI/ADR-RES ovarian
# SK-OV-3 ovarian = system: SK-OV-3 ovarian
# NCI-H460 lung = system: NCI-H460 lung
# T-47D breast = system: T-47D breast
# UACC-257 melanoma = system: UACC-257 melanoma
# SNB-75 CNS = system: SNB-75 CNS
# HCC-2998 colon = system: HCC-2998 colon
# BT-549 breast = system: BT-549 breast
# ACHN renal = system: ACHN renal
# M14 melanoma = system: M14 melanoma
# SNB-78 CNS = system: SNB-78 CNS
# M19-MEL melanoma = system: M19-MEL melanoma
# DMS 114 small cell lung = system: DMS 114 small cell lung
# XF 498 CNS = system: XF 498 CNS
# DLD-1 colon = system: DLD-1 colon
# DMS 273 small cell lung = system: DMS 273 small cell lung
# LXFL 529 NSCLC = system: LXFL 529 NSCLC
compound,measurement,setting,value
COC1(CC[C@H](C)COC2OC(CO)C(O)C(O)C2O)O[C@H]2C[C@H]3[C@@H]4CC=C5C[C@@H](OC6OC(CO)C(OC7OC(C)C(O)C(O)C7O)C(O)C6OC6OC(C)C(O)C(O)C6O)CC[C@]5(C)[C@H]4CC[C@]3(C)[C@H]2[C@@H]1C (some centres not stated),TGI,SW-620 colon,6.78 µM
same,TGI,HT29 colon,6.8 µM
same,TGI,A498 renal,64.5 µM
same,TGI,NCI-H226 lung,31.7 µM
same,TGI,MDA-MB-231 breast,21.1 µM
same,TGI,MDA-MB-435,5.3 µM
same,TGI,CCRF-CEM leukemia,> 37.1 µM
same,TGI,HOP-92 NSCLC,6.2 µM
same,TGI,SK-MEL-2 melanoma,13.6 µM
same,TGI,OVCAR-4 ovarian,18 µM
same,TGI,LOX IMVI melanoma,3.6 µM
same,TGI,KM12 colon,6.65 µM
same,TGI,A549 NSCLC,4.28 µM
same,TGI,TK-10 renal,> 100 µM
same,TGI,SN12C renal,> 100 µM
same,TGI,IGROV1 ovarian,20.1 µM
same,TGI,OVCAR-8 ovarian,10.1 µM
same,GI50,HCT-116 colon,2920 nM
same,TGI,HCT-116 colon,8.34 µM
same,TGI,NCI-H522 lung,5.31 µM
same,TGI,UO-31 renal,6.79 µM
same,TGI,SK-MEL-28 melanoma,15.8 µM
same,TGI,MALME-3M melanoma,9.15 µM
same,TGI,OVCAR-3 ovarian,17.6 µM
same,TGI,COLO 205 colon,64 µM
same,TGI,PC-3 prostate,11.9 µM
same,TGI,SR leukemia,> 100 µM
same,TGI,HOP-62 NSCLC,4.09 µM
same,TGI,MOLT-4 leukemia,> 100 µM
same,TGI,CAKI-1 renal,3.26 µM
same,TGI,MDA-N,9.57 µM
same,TGI,RPMI-8226 leukemia,5.93 µM
same,TGI,MCF7 breast,39.8 µM
same,TGI,EKVX NSCLC,98.8 µM
same,TGI,U251 CNS,7.36 µM
same,TGI,SF-268 CNS,10.3 µM
same,TGI,K-562 leukemia,> 100 µM
same,TGI,DU-145 prostate,5.77 µM
same,TGI,HS 578T breast,6.72 µM
same,TGI,OVCAR-5 ovarian,> 35.5 µM
same,TGI,SF-295 CNS,13.6 µM
same,TGI,NCI-H23 lung,19.2 µM
same,GI50,UACC-62 melanoma,6.95 µM
same,TGI,UACC-62 melanoma,21.6 µM
same,TGI,786-0 renal,5.57 µM
same,TGI,SK-MEL-5 melanoma,> 28.6 µM
same,TGI,RXF 393 renal,18.4 µM
same,TGI,HCT-15 colon,7.47 µM
same,TGI,HL-60(TB) leukemia,46.6 µM
same,TGI,SNB-19 CNS,12.4 µM
same,TGI,SF-539 CNS,4.05 µM
same,TGI,NCI/ADR-RES ovarian,11.1 µM
same,TGI,SK-OV-3 ovarian,7.99 µM
same,GI50,NCI-H460 lung,4.39 µM
same,TGI,NCI-H460 lung,15.1 µM
same,TGI,T-47D breast,9.83 µM
same,TGI,UACC-257 melanoma,28.7 µM
same,TGI,SNB-75 CNS,3.8 µM
same,TGI,HCC-2998 colon,> 27.9 µM
same,TGI,BT-549 breast,13.1 µM
same,TGI,ACHN renal,29.4 µM
CC(C)=CCc1c(O)cc2oc(-c3ccc(O)cc3O)cc(=O)c2c1O,TGI,SW-620 colon,> 100 µM
same,TGI,HT29 colon,49.8 µM
same,TGI,A498 renal,> 100 µM
same,TGI,NCI-H226 lung,> 100 µM
same,TGI,MDA-MB-231 breast,67.2 µM
same,TGI,MDA-MB-435,> 75.5 µM
same,TGI,CCRF-CEM leukemia,28.2 µM
same,TGI,HOP-92 NSCLC,> 88.6 µM
same,TGI,SK-MEL-2 melanoma,64.7 µM
same,TGI,OVCAR-4 ovarian,50.8 µM
same,TGI,LOX IMVI melanoma,59.1 µM
same,TGI,KM12 colon,50.8 µM
same,TGI,A549 NSCLC,> 100 µM
same,TGI,TK-10 renal,69.7 µM
same,TGI,SN12C renal,> 69.1 µM
same,TGI,IGROV1 ovarian,> 100 µM
same,TGI,OVCAR-8 ovarian,> 100 µM
same,TGI,HCT-116 colon,61.1 µM
same,TGI,NCI-H522 lung,53.6 µM
same,TGI,UO-31 renal,93.9 µM
same,TGI,SK-MEL-28 melanoma,87.8 µM
same,TGI,M14 melanoma,> 77.9 µM
same,TGI,MALME-3M melanoma,53.7 µM
same,TGI,OVCAR-3 ovarian,51.5 µM
same,TGI,COLO 205 colon,62.6 µM
same,TGI,PC-3 prostate,98.2 µM
same,TGI,SR leukemia,> 65.6 µM
same,TGI,HOP-62 NSCLC,> 92.8 µM
same,TGI,CAKI-1 renal,> 81.4 µM
same,TGI,MDA-N,72.3 µM
same,TGI,RPMI-8226 leukemia,41.4 µM
same,TGI,MCF7 breast,> 65.6 µM
same,TGI,EKVX NSCLC,> 100 µM
same,TGI,U251 CNS,> 100 µM
same,TGI,SF-268 CNS,> 100 µM
same,TGI,K-562 leukemia,> 59.2 µM
same,TGI,DU-145 prostate,> 84.8 µM
same,TGI,HS 578T breast,> 94 µM
same,TGI,OVCAR-5 ovarian,81.3 µM
same,TGI,SF-295 CNS,> 100 µM
same,TGI,NCI-H23 lung,58.2 µM
same,TGI,UACC-62 melanoma,34.6 µM
same,TGI,786-0 renal,74.5 µM
same,TGI,SK-MEL-5 melanoma,38.7 µM
same,TGI,RXF 393 renal,64.8 µM
same,TGI,HCT-15 colon,> 63.2 µM
same,TGI,HL-60(TB) leukemia,51 µM
same,TGI,SNB-19 CNS,> 100 µM
same,TGI,SF-539 CNS,58.7 µM
same,TGI,NCI/ADR-RES ovarian,> 94.4 µM
same,TGI,SK-OV-3 ovarian,> 100 µM
same,TGI,NCI-H460 lung,> 100 µM
same,TGI,T-47D breast,49.8 µM
same,TGI,UACC-257 melanoma,> 83.8 µM
same,TGI,SNB-75 CNS,69.1 µM
same,TGI,HCC-2998 colon,35.1 µM
same,TGI,BT-549 breast,> 76.2 µM
same,TGI,ACHN renal,77 µM
Cc1ncc(CI)c(CI)c1O,TGI,SNB-78 CNS,> 100 µM
same,TGI,A498 renal,> 100 µM
same,TGI,NCI-H226 lung,6.1 µM
same,TGI,M19-MEL melanoma,> 100 µM
same,TGI,CCRF-CEM leukemia,23.2 µM
same,TGI,HOP-92 NSCLC,> 100 µM
same,TGI,SK-MEL-2 melanoma,42.4 µM
same,TGI,OVCAR-4 ovarian,> 100 µM
same,TGI,DMS 114 small cell lung,> 100 µM
same,TGI,SN12C renal,35.2 µM
same,TGI,IGROV1 ovarian,> 100 µM
same,TGI,HCT-116 colon,31.4 µM
same,TGI,NCI-H522 lung,12.7 µM
same,TGI,UO-31 renal,6.28 µM
same,TGI,SK-MEL-28 melanoma,44.6 µM
same,TGI,M14 melanoma,> 100 µM
same,TGI,MALME-3M melanoma,42.5 µM
same,TGI,COLO 205 colon,> 100 µM
same,TGI,SR leukemia,36.7 µM
same,TGI,HOP-62 NSCLC,35.3 µM
same,TGI,MOLT-4 leukemia,41.6 µM
same,TGI,CAKI-1 renal,> 100 µM
same,TGI,RPMI-8226 leukemia,31.4 µM
same,TGI,SF-268 CNS,54.7 µM
same,TGI,K-562 leukemia,31.5 µM
same,TGI,XF 498 CNS,38.4 µM
same,TGI,NCI-H23 lung,48.2 µM
same,TGI,UACC-62 melanoma,> 100 µM
same,TGI,786-0 renal,35.3 µM
same,TGI,DLD-1 colon,55.8 µM
same,TGI,HL-60(TB) leukemia,5.29 µM
same,TGI,SF-539 CNS,43.8 µM
same,TGI,SK-OV-3 ovarian,> 100 µM
same,TGI,NCI-H460 lung,> 100 µM
same,TGI,SNB-75 CNS,41.2 µM
same,TGI,DMS 273 small cell lung,32.1 µM
same,TGI,HCC-2998 colon,33.3 µM
same,TGI,LXFL 529 NSCLC,> 100 µM
